Test results from patent US5656662A, “Synthesis of optically pure 4-alkenyl- or 4-alkanyl-2-hydroxytetronic acids” (The Ohio State University Research Foundation, priority 1995, dated 1997).

What was measured:
IL-6 = IL-6 secretion from purified human monocytes; assay type: cell-based; design: key: NE: No effect; INHIB: Inhibition; STIM: Stimulation; IC40: 40% Inhibitory Concentration; EC50: 50% Effective Concentration; TC: Tolerated Concentration; IA: Interferes with Assay
Method: This assay determines the effect of test compounds on the secretion of IL-6 from purified human monocytes. Compounds are tested for their ability to downregulate the production of IL-6 in activated monocytes, or upregulate secretion of IL-6 in unstimulated monocytes. Test compounds are incubated for sixteen hours with purified human monocytes at four dilutions over a range of three log10 concentrations. Where appropriate, lipopolysaccharide (LPS) is used to stimulate the monocytes.
The level of IL-6 in the resultant supernatants is quantitated in a solid phase Enzyme-linked Immunoassay (EIA) performed in a 96 well format. IL-6 present in the samples is captured by a specific monoclonal antibody immobilized on the well, and probed with an anti-IL-6 polyclonal antibody conjugated to horseradish peroxidase, followed by an appropriate substrate. The levels of IL-6 are determined by interpolation of the resultant color change in the substrate from a standard curve. All supernatants are tested in duplicate with controls and standards.

PGE2 = PGE2 production by purified human monocytes; assay type: cell-based; design: key to EFFECT on PGE2: NE: No effect; INHIB: Inhibition; STIM: Stimulation; IC40: 40% Inhibitory Concentration; EC50: 50% Effective Concentration; TC: Tolerated Concentration; IA: Interferes with Assay
Method: This procedure measures the ability of test compounds to modulate the amount of PGE2 produced by purified human monocytes. Compounds are tested for their ability to downregulate the secretion of PGE2 from activated monocytes, or upregulate secretion of PGE2 from unstimulated monocytes. Test compounds are incubated for ninety minutes with purified human monocytes at four dilutions over a range of three log10 concentrations. Where appropriate, zymosan is used to stimulate the monocytes.
The level of PGE2 in the resultant supernatants is quantitated by immunoassay performed in a 96 well format. PGE2 levels modulated by unknown compounds are determined by interpolation from a standard curve. All compounds are tested in duplicate with controls and standards.

SMILES: CCCCCCCCCCCCCC/C=C\CC[C@@H]1OC(=O)C(O)=C1O [(S)-3,4-Dihydroxy-5-[(Z)-3-octadecenyl]-2(5H)-furanone]
- EFFECT on IL6 (IL-6; STIMULATED): NE
- EFFECT on IL6 (IL-6; UNSTIMULATED): NE
- EC50 (PGE2; Homo sapiens, Monocyte, STIMULATED, INHIB): 2 µM
- EFFECT on PGE2 (PGE2; STIMULATED): INHIB
- EFFECT on PGE2 (PGE2; UNSTIMULATED): NE
